Measurements taken from patent US7101980B2, “Derivatives, conjugates, and antibodies for detecting ecstasy-class analytes” (Roche Diagnostics Operations, Inc., priority 2002, dated 2006).

What was measured:
Format in all cases: binding, mouse
antibody MDMA 2.1.1 = assay: Cross-reactivity of antibody MDMA 2.1.1 with various drugs (ELISA cross-reactivity assay); conditions: antibody MDMA 2.1.1 (elicited by immunogen 12, T=KLH); ED50 of standard / ED50 of drug x 100; MDMA = 100
Method: In Table 1, the abbreviation d-AMP represents d-amphetamine, the abbreviation d-MAMP represents d-methamphetamine, the abbreviation l-AMP represents l-amphetamine, the abbreviation l-MAMP represents l-methamphetamine, and the abbreviation MDPA represents 3,4-methylenedioxy-N-propylamphetamine.
Microplates were coated with […] methylenedioxymethamphetamine-BSA conjugate 12 (T=BSA, 12b) at a concentration of 1 mg/mL, and separate microplates were coated with either 100 μL methamphetamine-BSA (MAMP-BSA) 28 at a concentration of 1 mg/mL or with 100 μL of amphetamine-BSA (AMP-BSA) 30 at a concentration of 1 mg/mL.
The plates were incubated covered for 1 hour at 37° C. (humidified). The plates were then emptied and filled with a post-coat solution consisting of Tris buffer, 1% gelatin hydrolysate, 2% sucrose, and 0.17% TWEEN 20. (All reagents were from Sigma Chemical Co.) The plates were incubated covered for an additional 1 hour at 37° C. (humidified), after which they were washed with phosphate-buffered saline containing 0.1% TWEEN 20. The plates were then filled with a 2% sucrose solution in 0.15 M Tris, pH 7.2–7.4, briefly, then emptied and allowed to air dry at room temperature. When dried, the plates were packed in ZIPLOC (Dow Chemical Co.) plastic bags containing several desiccant pillows, sealed, and stored at 4° C. until use.
For the primary screening of the growing clones from the fusion plates, only the MDMA-BSA 12 (T=BSA, 12b) coated plates were used. Fifty microliters of PBS was added to each well, followed by 50 μL of the sample of culture media from wells on the fusion plate, diluted 1:10 in PBS. The plates were incubated covered for 1 hour at 37° C., then washed with PBS-TWEEN (0.1%). The wells were then filled with 100 μL of goat anti-mouse IgG-HRP conjugate (Zymed Labs), diluted in PBS-TWEEN, and the plates re-incubated for 1 hour. The plates were then washed again and 100 μL of K-Blue Substrate (Neogen Corp.) added. This was allowed to develop for 5–15 minutes, the reaction being stopped by the addition of 100 μL of 1 N HCl. Color was read by means of a microplate reader at 450 nm and collected by computer for analysis. […] Cells were subjected to limiting dilution subcloning, and upon appearance of growth, were tested by a secondary screen.
(§1) Supernatants were subjected to serial dilutions and re-tested in the ELISA screen above. The dilution providing for about a 50% reduction from the maximum OD was chosen for proceeding to cross-reactivity testing. This comprised repeating the preceding assay with the antibody at the chosen dilution and in the presence of varying concentrations of drugs.

antibody NEAMP 48.2 = assay: Cross-reactivity of NEAMP 48.2 with various drugs generated in a KIMS assay (ONLINE DAT II); conditions: antibody NEAMP 48.2 (immunogen 26, Q=KLH); KIMS immunoassay; MDEA as standard = 100
antibody NEAMP 62.1 = assay: Cross-reactivity of NEAMP 62.1 with various drugs generated in a KIMS assay (ONLINE DAT II); conditions: antibody NEAMP 62.1 (immunogen 26, Q=KLH); KIMS immunoassay; MDEA as standard = 100
antibody NEAMP 1.3 = assay: Cross-reactivity of NEAMP 1.3 with various drugs generated in an ELISA assay; conditions: antibody NEAMP 1.3 (immunogen 26, Q=KLH), MDEA as standard = 100
Method: Antibodies elicited by the immunogen 12, e.g., wherein T is KLH, show good response and specificity to ecstasy-class drugs. Furthermore, these antibodies show little or no cross-reactivity to related drugs. By determining the drug concentration that results in a 50% reduction in binding (ED50) of a standard, methamphetamine, dividing by the ED50 of each other drug, and then multiplying the result by 100, the percent cross-reactivity was calculated.
Tables 2, 3, and 4 show cross-reactivity data for the antibodies NEAMP 1.3, NEAMP 48.2, and NEAMP 62.1, which were generated in response to immunogen 26 of FIG. 2 wherein Q is KLH. By the procedure described above, using MDEA as a standard, the percent cross-reactivities shown in Tables 2, 3, and 4 were calculated.
Microplates were coated with 100 μL methamphetamine-BSA conjugate 28 (for screening for NEAMP 1.3) or 100 μL of MDEA-BSA conjugate 36 (for screening for NEAMP 48.2 and NEAMP 62.1), and separate microplates were coated with 100 μL N-ethylamphetamine-BSA 26 (Q=BSA, 26b) at 1 μg/mL in 0.1 M carbonate buffer, pH 9.5, for 1 hour at 37° C. (humidified). The plates were then emptied and filled with a post-coat solution containing Tris buffer, 1% gelatin hydrolysate, 2% sucrose, and 0.17% TWEEN 20. (All reagents were from Sigma Chemical Co.) The plates were incubated for an additional 1 hour at 37° C. (humidified), after which they were washed with phosphate-buffered saline containing 0.1% TWEEN 20. The plates were then filled with a 2% sucrose solution in 0.15 M Tris, pH 7.2–7.4, briefly, then emptied and allowed to air-dry at room temperature. When dried, the plates were packed in ZIPLOC bags containing several desiccant pillows, sealed, and stored at 4° C. until use.
When the growing clones were judged ready for testing, 25 μL of supernatant from the wells were taken and transferred to 96-well flexible plates. Culture medium was added to each well to provide a 1:10 dilution of the media sample. One hundred microliters of the diluted sample were transferred to each of the coated plates above. The plates were incubated covered for 1 hour at 37° C., then washed with PBS-TWEEN. The wells were then filled with 100 μL of goat anti-mouse IgG-HRP conjugate (Zymed Labs) diluted in PBS-TWEEN and the plates re-incubated for 1 hour. The plates were then washed again, and 100 μL of K Blue substrate (Neogen Corp) was added. This was allowed to develop for 5–15 minutes, the reaction being stopped by the addition of 100 μL of 1 N HCl. Color was read by means of a microplate reader at […] and collected by computer for analysis. A criterion for selection was binding to the methamphetamine-BSA conjugate 28 (for selection of NEAMP 1.3) or MDEA-BSA conjugate 36 (for screening for NEAMP 48.2 and NEAMP 62.1). Clones chosen were immediately subcloned and, when ready, retested. Stable subclones were expanded, frozen, and the spent media used to determine specificity using the cross-reactivity assay.
as §1

SMILES	% Cross-reactivity (antibody MDMA 2.1.1) [%]	% Cross-reactivity (antibody NEAMP 48.2) [%]	% Cross-reactivity (antibody NEAMP 62.1) [%]	% Cross-reactivity (antibody NEAMP 1.3) [%]
CCC(N)Cc1ccc2c(c1)OCO2 (centres unmarked) [BDB, 3,4-methylenedioxyphenyl-2-butanamine]	20.5	1	46	–
CCC(Cc1ccc2c(c1)OCO2)NC (centres unmarked) [MBDB, 3,4-methylenedioxyphenyl-N-methylbutanamine]	26.1	6	13	3.9
CC(N)Cc1ccc2c(c1)OCO2 (centres unmarked) [MDA, 3,4-methylenedioxyamphetamine]	60.6	–	–	–
CCNC(C)Cc1ccc2c(c1)OCO2 (centres unmarked) [MDEA, 3,4-methylenedioxy-N-ethylamphetamine]	204	100	100	100
CNC(C)Cc1ccc2c(c1)OCO2 (centres unmarked) [MDMA, 3,4-methylenedioxy-N-methylamphetamine]	100	5	4.0	22.5
CCCNC(C)Cc1ccc2c(c1)OCO2 (centres unmarked) [MDPA, 3,4-methylenedioxy-N-propylamphetamine]	365	–	–	–
CNCC(O)c1ccc(O)c(O)c1 (centres unmarked) [adrenaline]	0	–	–	–
C[C@H](N)Cc1ccccc1 [d-AMP, d-amphetamine]	0	0	–	6.4
CN[C@@H](C)Cc1ccccc1 [d-MAMP, d-methamphetamine]	0.65	–	0.5	19.7
CCNC(C)Cc1ccccc1 (stereo not drawn) [d-N-ethylamphetamine]	–	130	11	–
CN[C@@H](C)[C@@H](O)c1ccccc1 [d-pseudoephedrine]	–	0.06	0.1	0.4
CN[C@@H](C)[C@H](O)c1ccccc1 [ephedrine]	0	–	–	–
C[C@@H](N)Cc1ccccc1 [l-AMP, l-amphetamine]	0	–	–	6.6
CN[C@H](C)Cc1ccccc1 [l-MAMP, l-methamphetamine]	0	0.5	0.2	–
CN[C@@H](C)[C@H](O)c1ccccc1 [l-ephedrine]	–	0	0.0	1.3
NC[C@H](O)c1ccc(O)c(O)c1 [norepinephrine]	0	–	–	–
C[C@H]1[C@H](c2ccccc2)OCCN1C [phendimetrazine]	–	0.04	0.1	0.12
CC(C)(N)Cc1ccccc1 [phentermine]	0	–	–	–
CC(N)C(O)c1ccccc1 (centres unmarked) [phenylpropanolamine]	0	–	–	–
CN[C@@H](C)[C@@H](O)c1ccccc1 [pseudoephedrine]	0	–	–	–
c1cc2c(cc1[C@H]1OC[C@H]3[C@@H]1CO[C@@H]3c1ccc3c(c1)OCO3)OCO2 [sesamin]	0	–	–	–
NCCc1ccc(O)cc1 [tyramine]	0	–	–	–
